Data from PubChem BioAssay (NCI).
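Results reflect a 48-hour exposure of cells in 96-well plates to compound at five concentrations. GI50 is the concentration that inhibits growth by half. Definition used: TGI = concentration required for complete inhibition of growth.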

Tests used:
Assay in all cases: growth of human tumour cells (NCI), 48 h
SK-MEL-2 melanoma = test system: SK-MEL-2 melanoma
HL-60(TB) leukemia = test system: HL-60(TB) leukemia
DLD-1 colon = test system: DLD-1 colon
OVCAR-4 ovarian = test system: OVCAR-4 ovarian
UO-31 renal = test system: UO-31 renal
OVCAR-5 ovarian = test system: OVCAR-5 ovarian
U251 CNS = test system: U251 CNS
HCT-15 colon = test system: HCT-15 colon
BT-549 breast = test system: BT-549 breast

Row | SMILES | TGI (SK-MEL-2 melanoma) | TGI (HL-60(TB) leukemia) | TGI (DLD-1 colon) | TGI (OVCAR-4 ovarian) | TGI (UO-31 renal) | TGI (OVCAR-5 ovarian) | TGI (U251 CNS) | GI50 (SK-MEL-2 melanoma) | GI50 (HL-60(TB) leukemia) | GI50 (HCT-15 colon) | TGI (HCT-15 colon) | GI50 (OVCAR-4 ovarian) | GI50 (BT-549 breast) | TGI (BT-549 breast) | GI50 (UO-31 renal) | GI50 (OVCAR-5 ovarian) | GI50 (U251 CNS)
1 | C[C@H]1CC(=O)C2=CCCC3(SCCCS3)[C@@H]2[C@H]1CO | > 100 µM | > 100 µM | > 100 µM | > 100 µM | > 100 µM | > 100 µM | > 100 µM |  |  |  |  |  |  |  |  |  | 
2 | O=C1c2ccccc2-c2c1c1ccccc1c(=O)n2CCCN1CCN(CCCn2c3c(c4ccccc4c2=O)C(=O)c2ccccc2-3)CC1 | > 100 µM | > 100 µM |  | > 100 µM | > 100 µM | > 100 µM | 18.7 µM | > 100000 nM | 79700 nM | > 79700 nM | > 100 µM | > 100000 nM | > 75200 nM | > 100 µM | > 45700 nM | > 100000 nM | 5440 nM
3 | COC(=O)c1ccc([N+](=O)[O-])c(O)c1 | > 100 µM | > 100 µM |  | > 100 µM | > 100 µM | > 100 µM | > 100 µM |  |  |  | > 100 µM |  |  | > 100 µM |  |  | 
4 | CCC1CC(=O)N(SCC(N)C(=O)O)C1=O (centres undefined) | > 100 µM | > 100 µM |  | > 100 µM | > 100 µM | > 100 µM | > 100 µM |  |  |  | > 100 µM |  |  | > 100 µM |  |  | 
5 | C=C1CCC2C3(C)COC(c4ccc(SC)cc4)OC3CCC2(C)C1C/C=C1/C(=O)OCC1O (centres undefined) | 15.5 µM | 7.87 µM |  | 18.7 µM | 21.9 µM | 25.2 µM | 5.7 µM | 3730 nM | 2590 nM | 2370 nM | 7.96 µM | 5810 nM | 4380 nM | 20.9 µM | 9730 nM | 10300 nM | 2290 nM
6 | CN1c2ccccc2S(=O)(=O)n2c(COc3ccc(Cl)cc3)nnc21 | > 100 µM | > 100 µM |  | > 100 µM | > 100 µM | > 100 µM | > 100 µM |  |  |  | > 100 µM |  |  | > 100 µM |  |  | 
7 | O=C1/C(=C\c2coc3ccccc3c2=O)c2ccccc2N1c1c(Cl)cccc1Cl | 6.04 µM | 87.6 µM |  | > 100 µM | 11.9 µM | > 100 µM | 35.6 µM | 2750 nM | 2080 nM | 650 nM | > 100 µM | 3660 nM | 2830 nM | 35.3 µM | 1800 nM | 20900 nM | 1450 nM
8 | COc1ccc(C2=C(c3cc(OC)c(OC)c(OC)c3)C(=O)CC2)cc1 |  | 1.21 µM |  | > 100 µM | > 100 µM | > 100 µM | > 100 µM | 971 nM | 110 nM | 147 nM | > 100 µM | 689 nM | 919 nM | > 22.7 µM | 3750 nM | 662 nM | 324 nM
9 | O=C(NNC(=O)c1ccncc1)c1ccncc1 | > 100 µM | > 100 µM |  | > 100 µM | > 100 µM | > 100 µM | > 100 µM |  |  |  | > 100 µM |  |  | > 100 µM |  |  | 
10 | CC1OC(OC2CC(O)C3(CO)C4C(O)CC5(C)C(C6=CC(=O)OC6)CCC5(O)C4CCC3(O)C2)C(O)C(O)C1O (centres undefined) | 0.0754 µM | 0.235 µM |  | 0.0176 µM | 0.0198 µM | 0.0311 µM | 0.0683 µM | 18.7 nM |  | < 13.3 nM | 0.024 µM | < 12.4 nM | < 12.9 nM | 0.0208 µM | < 12.4 nM | 14.7 nM | 21.9 nM
11 | COc1ccc(/C=C/c2cc(N3CCOCC3)c3cc(F)c(F)cc3n2)cc1OC | 11.5 µM | 5.14 µM |  | 2.04 µM | 10.3 µM | 11.9 µM | 10.5 µM | 2390 nM | 435 nM | 392 nM | 12 µM | 253 nM | 777 nM | 5.46 µM | 347 nM | 2010 nM | 728 nM
12 | COc1ccc(/C=C\c2cc(OC)c(OC)c(OC)c2)cc1OC(=O)c1cccc(Cn2cc(CCOC(=O)c3cccc(Cn4nnc5c4C(=O)c4ccccc4C5=O)c3)nn2)c1 | 33.1 µM | 0.0125 µM |  | > 100 µM | 79.5 µM | > 100 µM | > 100 µM |  | < 10 nM | < 10 nM | > 100 µM | 40.3 nM | < 10 nM | 1.35 µM | 160 nM | 54.2 nM | < 10 nM
13 | COc1c(CNC(=O)CCl)cc2[nH]c(C)cc2c1CNC(=O)CCl | 41.6 µM | 26.5 µM |  | 22.3 µM | 56.7 µM | 25.9 µM | 4.7 µM | 11000 nM | 4320 nM | 14900 nM | > 100 µM | 4550 nM | 17000 nM | 35.2 µM | 15700 nM | 5440 nM | 1940 nM
